Reference: patent publication US20240391931A1 (Bristol-Myers Squibb Company, priority 2021, published 2024)

What was measured:
HER2 WT = target: T1, HER2 WT (Homo sapiens, UniProt P04626); experiment: Enzymatic assay HER2 WT (method a); assay type: biochemical; details: [HER2 WT]=12.5 nM, [ATP]=25 μM, [Peptide 22]=1 μM
T1 construct: purchased ProQinase, Freiburg, Germany ERBB2 0108-0000-1
In short: (§1)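 Initial rates over 0–3600 s, read as substrate-to-product conversion by capillary electrophoresis, were converted to percent inhibition and fitted with a variable-slope curve to give IC50. Conditions: EGFR WT 2 nM with 1 mM ATP; HER2 YVMA 5 nM or HER2 WT 12.5 nM, each with 25 μM ATP. All used 1 μM Peptide 22 in pH 7.5 HEPES/Mn/Mg buffer.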

EGFR = EGFR (Homo sapiens, UniProt P00533); experiment: EGFR signaling (pEGFR Tyr1068/total EGFR MSD) in A431 cells; assay type: cell-based; design: endogenous in cells; host or cells: A431, N87; details: for EC50: A431 cells, read-out: A431 pEGFR EC50; for Selectivity A431 EC50/BT474 EC50: ratio A431 pEGFR EC50 to BT474 pHER2 EC50; for Selectivity A431 EC50/HEKYVMA EC50: ratio A431 pEGFR EC50 to HEK YVMA pHER2 EC50
In short: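 EC50 was fitted with variable Hill slope from MSD pTyr1068/total EGFR ratios, expressed as % DMSO control. A431 cells were starved overnight, then exposed 1.5 h to eight concentrations from 10 to 0.005 μM in 1% FBS before a 10-min 100 ng/mL EGF pulse.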

HER2YVMA = HER2YVMA (Homo sapiens, UniProt P04626, INS775YVMA); experiment: Enzymatic assay HER2YVMA (method b); assay type: biochemical; design: purchased Viva biotech, Shanghai, China custom purification; details: [HER2YVMA]=5 nM, [ATP]=25 μM, [Peptide 22]=1 μM
In short: as §1

EGFR WT = target: T2, EGFR WT (Homo sapiens, UniProt P00533); experiment: Enzymatic assay EGFR WT (method c); assay type: biochemical; details: [EGFR WT]=2 nM, [ATP]=1 mM, [Peptide 22]=1 μM
T2 construct: purchased Thermo Fisher, Carlsbad, CA ERBB1 PR7295B
In short: as §1

Chain of HER2YVMA (P04626 with tags, fused parts or gaps INS775YVMA): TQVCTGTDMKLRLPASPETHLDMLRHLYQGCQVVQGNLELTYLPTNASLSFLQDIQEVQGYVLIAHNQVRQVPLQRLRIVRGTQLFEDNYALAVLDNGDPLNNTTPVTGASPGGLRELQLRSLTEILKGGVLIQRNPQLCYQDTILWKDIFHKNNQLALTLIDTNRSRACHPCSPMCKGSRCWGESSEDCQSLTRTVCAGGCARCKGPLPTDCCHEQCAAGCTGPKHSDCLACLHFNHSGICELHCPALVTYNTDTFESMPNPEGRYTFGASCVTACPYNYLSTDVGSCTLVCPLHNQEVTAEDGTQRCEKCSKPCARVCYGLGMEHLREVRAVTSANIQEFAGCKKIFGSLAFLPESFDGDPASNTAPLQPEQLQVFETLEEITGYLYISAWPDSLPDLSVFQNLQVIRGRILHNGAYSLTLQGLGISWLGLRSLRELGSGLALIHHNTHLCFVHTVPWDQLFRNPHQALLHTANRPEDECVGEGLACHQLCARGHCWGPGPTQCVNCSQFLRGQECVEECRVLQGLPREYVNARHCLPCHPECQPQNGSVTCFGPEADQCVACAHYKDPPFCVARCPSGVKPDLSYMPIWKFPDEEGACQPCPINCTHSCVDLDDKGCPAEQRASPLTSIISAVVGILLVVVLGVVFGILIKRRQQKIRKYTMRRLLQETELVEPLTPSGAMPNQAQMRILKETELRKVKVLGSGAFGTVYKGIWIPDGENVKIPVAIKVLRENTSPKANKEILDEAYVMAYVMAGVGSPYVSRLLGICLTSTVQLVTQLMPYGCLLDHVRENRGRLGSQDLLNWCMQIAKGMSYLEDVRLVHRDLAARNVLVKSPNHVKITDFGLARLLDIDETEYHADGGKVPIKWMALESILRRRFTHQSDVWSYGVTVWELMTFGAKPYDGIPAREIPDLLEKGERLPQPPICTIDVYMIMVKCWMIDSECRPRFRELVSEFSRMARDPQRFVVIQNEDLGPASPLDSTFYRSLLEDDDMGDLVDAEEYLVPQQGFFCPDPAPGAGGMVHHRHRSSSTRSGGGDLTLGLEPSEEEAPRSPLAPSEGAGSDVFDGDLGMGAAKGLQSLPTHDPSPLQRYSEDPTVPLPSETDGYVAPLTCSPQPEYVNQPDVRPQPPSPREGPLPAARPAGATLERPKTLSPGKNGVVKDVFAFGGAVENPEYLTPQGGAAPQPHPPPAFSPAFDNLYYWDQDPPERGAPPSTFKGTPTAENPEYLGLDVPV
T2 sequence (P00533 25-1210): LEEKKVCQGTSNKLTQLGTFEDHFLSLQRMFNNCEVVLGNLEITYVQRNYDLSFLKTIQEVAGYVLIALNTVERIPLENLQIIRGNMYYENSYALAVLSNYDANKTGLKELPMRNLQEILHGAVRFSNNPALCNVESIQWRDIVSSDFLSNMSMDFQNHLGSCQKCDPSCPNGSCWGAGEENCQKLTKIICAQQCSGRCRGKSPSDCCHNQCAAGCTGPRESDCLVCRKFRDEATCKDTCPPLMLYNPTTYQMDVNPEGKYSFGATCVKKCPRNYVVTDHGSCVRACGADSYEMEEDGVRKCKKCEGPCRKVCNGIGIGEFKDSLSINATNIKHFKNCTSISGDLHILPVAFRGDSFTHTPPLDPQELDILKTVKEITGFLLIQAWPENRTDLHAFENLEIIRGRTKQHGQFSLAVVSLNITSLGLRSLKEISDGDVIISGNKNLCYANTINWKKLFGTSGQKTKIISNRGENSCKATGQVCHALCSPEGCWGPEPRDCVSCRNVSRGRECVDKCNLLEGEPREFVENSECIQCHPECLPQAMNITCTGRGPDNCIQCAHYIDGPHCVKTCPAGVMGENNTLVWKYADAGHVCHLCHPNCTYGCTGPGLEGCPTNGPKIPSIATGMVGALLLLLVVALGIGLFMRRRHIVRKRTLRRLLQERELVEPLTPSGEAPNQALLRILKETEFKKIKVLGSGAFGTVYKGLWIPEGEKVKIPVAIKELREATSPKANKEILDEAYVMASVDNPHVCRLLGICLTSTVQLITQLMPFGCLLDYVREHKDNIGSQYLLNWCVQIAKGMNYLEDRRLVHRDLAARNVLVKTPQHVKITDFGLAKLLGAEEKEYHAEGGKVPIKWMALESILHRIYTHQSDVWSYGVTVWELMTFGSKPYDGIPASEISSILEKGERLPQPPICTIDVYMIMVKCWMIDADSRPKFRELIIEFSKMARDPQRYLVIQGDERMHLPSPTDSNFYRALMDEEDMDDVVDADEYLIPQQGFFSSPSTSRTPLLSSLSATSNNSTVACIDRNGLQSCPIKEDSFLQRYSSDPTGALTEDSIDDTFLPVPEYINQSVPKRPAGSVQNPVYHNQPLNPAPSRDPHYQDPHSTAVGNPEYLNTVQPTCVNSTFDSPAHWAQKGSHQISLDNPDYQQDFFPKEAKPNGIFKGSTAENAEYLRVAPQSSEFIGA
Chain of EGFR (P00533 25-1210): as above
T1 sequence (P04626 23-1255): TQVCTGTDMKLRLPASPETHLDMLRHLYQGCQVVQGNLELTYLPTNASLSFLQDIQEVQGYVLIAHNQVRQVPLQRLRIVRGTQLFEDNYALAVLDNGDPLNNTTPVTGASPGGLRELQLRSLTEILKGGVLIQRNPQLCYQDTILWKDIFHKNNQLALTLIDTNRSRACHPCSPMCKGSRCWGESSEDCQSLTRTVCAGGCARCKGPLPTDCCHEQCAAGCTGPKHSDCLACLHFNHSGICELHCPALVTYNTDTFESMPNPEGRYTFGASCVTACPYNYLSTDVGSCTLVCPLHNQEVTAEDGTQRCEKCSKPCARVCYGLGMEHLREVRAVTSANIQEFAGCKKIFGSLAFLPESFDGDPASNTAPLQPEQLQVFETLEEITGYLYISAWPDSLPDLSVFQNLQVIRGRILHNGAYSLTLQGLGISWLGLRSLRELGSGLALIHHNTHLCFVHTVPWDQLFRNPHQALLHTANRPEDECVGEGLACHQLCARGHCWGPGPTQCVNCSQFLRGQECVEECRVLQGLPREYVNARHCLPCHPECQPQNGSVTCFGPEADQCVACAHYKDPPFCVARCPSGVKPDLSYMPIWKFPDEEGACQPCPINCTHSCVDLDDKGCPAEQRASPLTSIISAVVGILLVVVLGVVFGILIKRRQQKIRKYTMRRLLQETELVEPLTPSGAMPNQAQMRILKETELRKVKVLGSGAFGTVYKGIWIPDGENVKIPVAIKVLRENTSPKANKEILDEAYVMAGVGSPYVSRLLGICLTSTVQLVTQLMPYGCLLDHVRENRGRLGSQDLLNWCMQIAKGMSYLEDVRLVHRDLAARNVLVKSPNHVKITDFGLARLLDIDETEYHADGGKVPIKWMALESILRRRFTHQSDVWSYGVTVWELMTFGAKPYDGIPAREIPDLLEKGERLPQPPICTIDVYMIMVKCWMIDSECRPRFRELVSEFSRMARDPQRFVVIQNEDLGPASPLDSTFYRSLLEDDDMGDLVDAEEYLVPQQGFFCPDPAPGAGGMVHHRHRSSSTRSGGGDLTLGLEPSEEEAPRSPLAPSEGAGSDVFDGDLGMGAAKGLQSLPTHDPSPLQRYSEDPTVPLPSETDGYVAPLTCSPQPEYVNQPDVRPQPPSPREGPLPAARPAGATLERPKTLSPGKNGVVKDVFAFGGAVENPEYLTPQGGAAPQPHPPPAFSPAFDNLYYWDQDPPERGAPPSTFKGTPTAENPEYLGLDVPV

Question: With `Cc1ccc(Oc2ccc(Nc3ncnc4sc5c(c34)C(C)CN(C(=O)C=CCN(C)C)C5)cc2C)cn1` (single isomer, unassigned) [Compound 105] as the molecule, how does the IC50 (HER2 WT) read?
Answer: < 100 nM

Question: What about the EC50 (EGFR) of the same molecule?
Answer: 100 to 1000 nM

Question: And the “Selectivity A431 EC50/BT474 EC50” value (EGFR)?
Answer: C (C: ≥ 10 and < 20)

Question: What about the “Selectivity A431 EC50/HEKYVMA EC50” value (EGFR) of the same molecule?
Answer: D (D: ≥ 5 and < 10)

Question: What about the IC50 (HER2YVMA) of the same molecule?
Answer: < 100 nM

Question: What about the IC50 (EGFR WT) of the same molecule?
Answer: > 10000 nM

Question: Which results are given for `Cc1ccc(Oc2ccc(Nc3ncnc4sc5c(c34)C(C)CN(C(=O)C=CCN(C)C)C5)cc2C)cn1` (single isomer, unassigned) [Compound 106]?
Answer: IC50 (HER2 WT): < 100 nM; EC50 (EGFR): 100 to 1000 nM; Selectivity A431 EC50/BT474 EC50 (EGFR): B (B: ≥ 20 and < 100); Selectivity A431 EC50/HEKYVMA EC50 (EGFR): C (C: ≥ 10 and < 20); IC50 (HER2YVMA): < 100 nM; IC50 (EGFR WT): > 10000 nM

Question: Which results are given for `Cc1cc(Nc2ncnc3sc4c(c23)CCN(C(=O)/C=C/CN(C)C)C4)ccc1Oc1ccc2ncnn2c1` [Compound 3, (E)-1-(4-((4-([1,2,4]triazolo[1,5-a]pyridin-6-yloxy)-3-methylphenyl)amino)-5,8-dihydropyrido[4′,3′:4,5]thieno[2,3-d]pyrimidin-7(6H)-yl)-4-(dimethylamino)but-2-en-1-one]?
Answer: IC50 (HER2 WT): < 100 nM; EC50 (EGFR): 100 to 1000 nM; Selectivity A431 EC50/BT474 EC50 (EGFR): B (B: ≥ 20 and < 100); Selectivity A431 EC50/HEKYVMA EC50 (EGFR): E (E: >1 and < 5); IC50 (HER2YVMA): 100 to 1000 nM; IC50 (EGFR WT): 1000 to 10000 nM

Question: What does the source list for `C=CC(=O)N1CCc2c(sc3ncnc(Nc4ccc(Oc5ccc6ncnn6c5)c(Cl)c4)c23)C1` [Compound 4, 1-(4-((4-([1,2,4]triazolo[1,5-a]pyridin-6-yloxy)-3-chlorophenyl)amino)-5,8-dihydropyrido[4′,3′:4,5]thieno[2,3-d]pyrimidin-7(6H)-yl)prop-2-en-1-one]?
Answer: IC50 (HER2 WT): < 100 nM; EC50 (EGFR): 100 to 1000 nM; Selectivity A431 EC50/BT474 EC50 (EGFR): B (B: ≥ 20 and < 100); Selectivity A431 EC50/HEKYVMA EC50 (EGFR): A (A: ≥100); IC50 (HER2YVMA): < 100 nM; IC50 (EGFR WT): > 10000 nM

Question: For `CN(C)C/C=C/C(=O)N1CCc2c(sc3ncnc(Nc4ccc(Oc5ccc6ncnn6c5)c(Cl)c4)c23)C1` [Compound 5, (E)-1-(4-((4-([1,2,4]triazolo[1,5-a]pyridin-6-yloxy)-3-chlorophenyl)amino)-5,8-dihydropyrido[4′,3′:4,5]thieno[2,3-d]pyrimidin-7(6H)-yl)-4-(dimethylamino)but-2-en-1-one], which IC50 (HER2 WT) is on record?
Answer: < 100 nM

Question: And the EC50 (EGFR)?
Answer: 100 to 1000 nM

Question: And the “Selectivity A431 EC50/HEKYVMA EC50” value (EGFR)?
Answer: B (B: ≥ 20 and < 100)

Question: What about the IC50 (HER2YVMA) of the same molecule?
Answer: < 100 nM

Question: What about the IC50 (EGFR WT) of the same molecule?
Answer: > 10000 nM

Question: `Cc1cc(Nc2ncnc3sc4c(c23)CCN(C(=O)/C=C/CN2CC3CCC(C3)C2)C4)ccc1Oc1ccc2ncnn2c1` [Compound 20] was tested. Which IC50 (HER2 WT) did it give?
Answer: < 100 nM

Question: What about the EC50 (EGFR) of the same molecule?
Answer: < 100 nM

Question: What about the “Selectivity A431 EC50/BT474 EC50” value (EGFR) of the same molecule?
Answer: B (B: ≥ 20 and < 100)

Question: And the “Selectivity A431 EC50/HEKYVMA EC50” value (EGFR)?
Answer: B (B: ≥ 20 and < 100)

Question: And the IC50 (HER2YVMA)?
Answer: < 100 nM

Question: What about the IC50 (EGFR WT) of the same molecule?
Answer: 1000 to 10000 nM

Question: Which results are given for `Cc1ncc(Oc2ccc(Nc3ncnc4sc5c(c34)CCN(C(=O)/C=C/CN(C)C)C5)cc2C)cn1` [Compound 21, (E)-4-(dimethylamino)-1-(4-((3-methyl-4-((2-methylpyrimidin-5-yl)oxy)phenyl)amino)-5,8-dihydropyrido[4′,3′:4,5]thieno[2,3-d]pyrimidin-7(6H)-yl)but-2-en-1-one]?
Answer: IC50 (HER2 WT): 100 to 1000 nM; EC50 (EGFR): 100 to 1000 nM; Selectivity A431 EC50/BT474 EC50 (EGFR): B (B: ≥ 20 and < 100); Selectivity A431 EC50/HEKYVMA EC50 (EGFR): B (B: ≥ 20 and < 100); IC50 (HER2YVMA): 100 to 1000 nM; IC50 (EGFR WT): > 10000 nM

Question: What does the source list for `Cc1cc(Nc2ncnc3sc4c(c23)CCN(C(=O)/C=C/CN(C)C)C4)ccc1Oc1ccc2[nH]ncc2c1` [Compound 22, (E)-1-(4-((4-((1H-indazol-5-yl)oxy)-3-methylphenyl)amino)-5,8-dihydropyrido[4′,3′:4,5]thieno[2,3-d]pyrimidin-7(6H)-yl)-4-(dimethylamino)but-2-en-1-one]?
Answer: IC50 (HER2 WT): < 100 nM; EC50 (EGFR): < 100 nM; Selectivity A431 EC50/BT474 EC50 (EGFR): D (D: ≥ 5 and < 10); Selectivity A431 EC50/HEKYVMA EC50 (EGFR): E (E: >1 and < 5); IC50 (HER2YVMA): < 100 nM; IC50 (EGFR WT): 1000 to 10000 nM

Question: Which IC50 (HER2 WT) does the source give for `Cc1cc(Nc2ncnc3sc4c(c23)CCN(C(=O)/C=C/CN(C)C)C4)ccc1Oc1ccc2cn[nH]c2c1` [Compound 23, (E)-1-(4-((4-((1H-indazol-6-yl)oxy)-3-methylphenyl)amino)-5,8-dihydropyrido[4′,3′:4,5]thieno[2,3-d]pyrimidin-7(6H)-yl)-4-(dimethylamino)but-2-en-1-one] here?
Answer: < 100 nM

Question: And the EC50 (EGFR)?
Answer: < 100 nM

Question: And the “Selectivity A431 EC50/BT474 EC50” value (EGFR)?
Answer: D (D: ≥ 5 and < 10)

Question: What about the “Selectivity A431 EC50/HEKYVMA EC50” value (EGFR) of the same molecule?
Answer: E (E: >1 and < 5)

Question: And the IC50 (HER2YVMA)?
Answer: < 100 nM

Question: What about the IC50 (EGFR WT) of the same molecule?
Answer: 1000 to 10000 nM

Question: What does the source list for `Cc1ccc(Oc2ccc(Nc3ncnc4sc5c(c34)CCN(C(=O)/C=C/CN3CC4CC3CO4)C5)cc2C)cn1` (centres unmarked) [Compound 26]?
Answer: IC50 (HER2 WT): < 100 nM; EC50 (EGFR): < 100 nM; Selectivity A431 EC50/BT474 EC50 (EGFR): D (D: ≥ 5 and < 10); Selectivity A431 EC50/HEKYVMA EC50 (EGFR): D (D: ≥ 5 and < 10); IC50 (HER2YVMA): < 100 nM; IC50 (EGFR WT): > 10000 nM

Question: What does the source list for `Cc1ccc(Oc2ccc(Nc3ncnc4sc5c(c34)CCN(C(=O)/C=C/CN(C)C(C)(C)C)C5)cc2C)cn1` [Compound 33]?
Answer: IC50 (HER2 WT): < 100 nM; EC50 (EGFR): 100 to 1000 nM; Selectivity A431 EC50/BT474 EC50 (EGFR): B (B: ≥ 20 and < 100); Selectivity A431 EC50/HEKYVMA EC50 (EGFR): C (C: ≥ 10 and < 20); IC50 (HER2YVMA): < 100 nM; IC50 (EGFR WT): > 10000 nM
